≈ marks a conversion by molar mass, not a printed value.
Key:
[1] = Chemical stability at elevated temperature, decomposition by liquid chromatography; assay type: physicochemical; conditions: for Thermal stability with elapsed time: at 70° C.; for Chemical stability compared with the anhydrate: 70° C., liquid chromatography
Description: The present inventors also compared the chemical stability under heating of the hydrates with that of the anhydrate in order to identify the influence of hydration on the chemical stability. In this test, the anhydrate and hydrate were each kept at 70° C. for 4 weeks, and the extent of decomposition is analyzed by liquid chromatography. No difference in the extent of decomposition was noticed between the hydrates and the anhydrate, and thus confirming that the hydrate has the same chemical stability as the anhydrate.
The chemical stability of the n=3 hydrate of Example 2 and the n=1.5 hydrate of Example 3 and the anhydrate of Example 1 were compared at elevated temperature in order to determine the effect on chemical stability of the extent of hydration.
The anhydrate and each of the hydrates were introduced into a glass vial and maintained at 70° C. The extent of decomposition with elapsed time was analyzed by liquid chromatography.

[2] = Moisture sorption of the anhydrate, automatic moisture sorption analyzer; assay type: physicochemical; conditions: 25° C., each relative humidity 0 to 95%, in most cases
Description: The moisture sorption velocity and the equilibrium moisture content of the anhydrate of Example 1 was determined by means of an automatic moisture sorption analyzer (MB 300G Gravimetric Sorption Analyzer). This instrument produces a specific relative humidity at a specific temperature and continuously records the weight change of a sample due to adsorption or desorption of moisture as measured by a micro balance inside the instrument. The anhydrate of Example 1 (16 mg) was loaded onto the micro balance and the moisture contained in the sample removed under a stream of dried nitrogen at 50° C. A weight change of less than 5 μg per 5 minutes was the criterion for complete dryness. Thereafter, the inner temperature was adjusted to 25° C. and the sample tested at 5% intervals whilst varying the humidity from 0 to 95%. The sample was considered to have reached equilibrium when the weight change was less than 5 μg per 5 minutes. […] It is clear from FIG. 2 that the equilibrium moisture content of the anhydrate is dependent on the relative humidity.

[3] = tested on: Acinetobacter calcoaceticus 15473; assay: In vitro antibacterial activity, agar medium dilution method; assay type: cell-based; conditions: read-out: Minimum Inhibitory Concentration: MIC
Description: (§1) In order to determine whether 7-(3-aminomethyl-4-methyloxyimino-pyrrolidin-1-yl)-1-cyclopropyl-6-fluoro-4-oxo-1,4-dihydro-1,8-naphthyridine-3-carboxylic acid methanesulfonate has the same antibacterial activity as the free base, in vitro antibacterial activity of the methanesulfonate was measured using agar medium dilution method.

Bacillus subtilis 6633 = assay: as above; assay type: cell-based; conditions: read-out: Minimum Inhibitory Concentration: MIC
Description: as §1

Escherichia coli 10536 = assay: as above; assay type: cell-based; conditions: read-out: Minimum Inhibitory Concentration: MIC
Description: as §1

Escherichia coli 3190Y = assay: as above; assay type: cell-based; conditions: read-out: Minimum Inhibitory Concentration: MIC
Description: as §1

Escherichia coli 851E = assay: as above; assay type: cell-based; conditions: read-out: Minimum Inhibitory Concentration: MIC
Description: as §1

[4] = tested on: Escherichia coli TEM3 3455E; assay: as above; assay type: cell-based; conditions: TEM33455E, read-out: Minimum Inhibitory Concentration: MIC
Description: as §1

[5] = tested on: Escherichia coli TEM5 3739E; assay: as above; assay type: cell-based; conditions: TEM53739E, read-out: Minimum Inhibitory Concentration: MIC
Description: as §1

[6] = tested on: Klebsiella aerogenes 1976E; assay: as above; assay type: cell-based; conditions: read-out: Minimum Inhibitory Concentration: MIC
Description: as §1

Micrococcus luteus 9431 = assay: as above; assay type: cell-based; conditions: read-out: Minimum Inhibitory Concentration: MIC
Description: as §1

Proteus vulgaris 6059 = assay: as above; assay type: cell-based; conditions: read-out: Minimum Inhibitory Concentration: MIC
Description: as §1

[7] = tested on: Pseudomonas aeruginosa 10145; assay: as above; assay type: cell-based; conditions: read-out: Minimum Inhibitory Concentration: MIC
Description: as §1

[8] = tested on: Pseudomonas aeruginosa 1912E; assay: as above; assay type: cell-based; conditions: read-out: Minimum Inhibitory Concentration: MIC
Description: as §1

[9] = tested on: Salmonella thypimurium 14028; assay: as above; assay type: cell-based; conditions: read-out: Minimum Inhibitory Concentration: MIC
Description: as §1

Seratia marsecence 1826E = assay: as above; assay type: cell-based; conditions: read-out: Minimum Inhibitory Concentration: MIC
Description: as §1

[10] = tested on: Staphylococcus aureus 241; assay: as above; assay type: cell-based; conditions: read-out: Minimum Inhibitory Concentration: MIC
Description: as §1

[11] = tested on: Staphylococcus aureus 6538p; assay: as above; assay type: cell-based; conditions: weight ratio, molecular weight not considered, read-out: Minimum Inhibitory Concentration: MIC
Description: as §1

Staphylococcus aureus 77 = assay: as above; assay type: cell-based; conditions: read-out: Minimum Inhibitory Concentration: MIC
Description: as §1

[12] = tested on: Staphylococcus aureus epidermidis 178; assay: as above; assay type: cell-based; conditions: read-out: Minimum Inhibitory Concentration: MIC
Description: as §1

[13] = tested on: Staphylococcus aureus epidermidis 887E; assay: as above; assay type: cell-based; conditions: read-out: Minimum Inhibitory Concentration: MIC
Description: as §1

[14] = tested on: Staphylococcus aureus faecalis 29212; assay: as above; assay type: cell-based; conditions: read-out: Minimum Inhibitory Concentration: MIC
Description: as §1

[15] = tested on: Staphylococcus aureus giorgio; assay: as above; assay type: cell-based; conditions: read-out: Minimum Inhibitory Concentration: MIC
Description: as §1

[16] = tested on: Citrobacter diversus 2046E; assay: as above; assay type: cell-based; conditions: Citrobacter koseri, read-out: Minimum Inhibitory Concentration: MIC
Description: as §1

[17] = tested on: Enterobacter cloacae 1194E; assay: as above; assay type: cell-based; conditions: read-out: Minimum Inhibitory Concentration: MIC
Description: as §1

Enterobacter cloacae P99 = assay: as above; assay type: cell-based; conditions: read-out: Minimum Inhibitory Concentration: MIC
Description: as §1

[18] = tested on: Escherichia coli TEM9 2639E; assay: as above; assay type: cell-based; conditions: TEM92639E, read-out: Minimum Inhibitory Concentration: MIC
Description: as §1

[19] = tested on: Klebsiella aerogenes 1082E; assay: as above; assay type: cell-based; conditions: read-out: Minimum Inhibitory Concentration: MIC
Description: as §1

[20] = Equilibrium moisture content determination of hydrates in desiccators of controlled relative humidity; assay type: physicochemical; conditions: for Relative humidity range with constant moisture content: FIGS. 3 and 4
Description: Six saturated aqueous salt solutions were introduced into each desiccator to control the inner relative humidity to a specific value as shown in Table 3. Then, equilibrium moisture contents of n=3 hydrate and n=1.5 hydrate of Examples 2 and 3, respectively, were determined at several relative humidities.
The sample (100 mg) was spread on a pre-weighed Petri dish and the total weight was accurately measured, then three of the sample were placed in each desiccator of Table 3. The desiccators were allowed to stand at normal temperature for 7 days and then the sample was taken to be weighed. After 13 days, one of the three samples inside each desiccator was taken and the moisture content of each was measured by the thermogravimetric analysis described in Test Example 2. Equilibrium moisture content at each relative humidity is represented in FIG. 3 (n=3 hydrate) and FIG. 4 (n=1.5 hydrate). […] Both hydrates are stable since they maintain a constant equilibrium moisture content regardless of the relative humidity change.

[21] = Observed moisture content of the methanesulfonate hydrates; assay type: physicochemical; conditions: by hydration number (n)
Excerpt: The moisture content of the methanesulfonate hydrates varies with the hydration number (n) of the hydrated molecule. The methanesulfonate has a molecular weight of 485.5 thus the calculated moisture content of hydrates where n is 1, 1.5, 2, 2.5, 3, 3.5 and 4 is 3.6%, […], 6.9%, 8.5%, 10.0%, 11.5% and 12.9% respectively. However, the actual moisture content of the methanesulfonate hydrates may differ from the calculated value depending on various factors including recrystallization conditions and drying conditions.

SMILES: CON=C1CN(c2nc3c(cc2F)c(=O)c(C(=O)O)cn3C2CC2)CC1CN.CS(=O)(=O)O (centres unmarked) [Anhydrate, 7-(3-aminomethyl-4-methoxyiminopyrrolidin-1-yl)-1-cyclopropyl-6-fluoro-4-oxo-1,4-dihydro-1,8-naphthyridine-3-carboxylic acid methanesulfonate anhydrate]
- Thermal stability with elapsed time ([1]; 1 week): 99.8%
- Thermal stability with elapsed time ([1]; 2 weeks): 98.6%
- Thermal stability with elapsed time ([1]; 3 weeks): 97.7%
- Thermal stability with elapsed time ([1]; 4 weeks): 96.7%
- Thermal stability with elapsed time ([1]; Initial): 100%
- Time to reach moisture sorption equilibrium [2]: ≤ 2 h

SMILES: O=C(O)c1cn(C2CC2)c2cc(N3CCNCC3)c(F)cc2c1=O [Ciprofloxacin, ciprofloxacin, reference compound]
- MIC [3]: 0.25 µg/mL (≈ 0.754 µM)
- MIC (Bacillus subtilis 6633): 0.031 µg/mL (≈ 0.0936 µM)
- MIC (Escherichia coli 10536): < 0.008 µg/mL
- MIC (Escherichia coli 3190Y): < 0.008 µg/mL
- MIC (Escherichia coli 851E): < 0.008 µg/mL
- MIC [4]: 0.5 µg/mL (≈ 1.51 µM)
- MIC [5]: 0.13 µg/mL (≈ 0.392 µM)
- MIC [6]: 0.13 µg/mL (≈ 0.392 µM)
- MIC (Micrococcus luteus 9431): 2 µg/mL (≈ 6.04 µM)
- MIC (Proteus vulgaris 6059): 0.031 µg/mL (≈ 0.0936 µM)
- MIC [7]: 0.5 µg/mL (≈ 1.51 µM)
- MIC [8]: 0.13 µg/mL (≈ 0.392 µM)
- MIC [9]: 0.031 µg/mL (≈ 0.0936 µM)
- MIC (Seratia marsecence 1826E): 0.063 µg/mL (≈ 0.19 µM)
- MIC [10]: 128 µg/mL (≈ 386 µM)
- MIC [11]: 0.13 µg/mL
- MIC (Staphylococcus aureus 77): 0.25 µg/mL (≈ 0.754 µM)
- MIC [12]: 128 µg/mL (≈ 386 µM)
- MIC [13]: 0.13 µg/mL (≈ 0.392 µM)
- MIC [14]: 0.5 µg/mL (≈ 1.51 µM)
- MIC [15]: 0.13 µg/mL (≈ 0.392 µM)

SMILES: CON=C1CN(c2nc3c(cc2F)c(=O)c(C(=O)O)cn3C2CC2)CC1CN.CS(=O)(=O)O (centres unmarked) [Methanesulfonic acid salt, 7-(3-aminomethyl-4-methyloxyimino-pyrrolidin-1-yl)-1-cyclopropyl-6-fluoro-4-oxo-1,4-dihydro-1,8-naphthyridine-3-carboxylic acid methanesulfonate]
- MIC [3]: 0.031 µg/mL
- MIC (Bacillus subtilis 6633): 0.016 µg/mL
- MIC [16]: 0.031 µg/mL
- MIC [17]: 0.031 µg/mL
- MIC (Enterobacter cloacae P99): 0.016 µg/mL
- MIC (Escherichia coli 10536): 0.008 µg/mL
- MIC (Escherichia coli 3190Y): 0.008 µg/mL
- MIC (Escherichia coli 851E): 0.016 µg/mL
- MIC [4]: 0.25 µg/mL
- MIC [5]: 0.13 µg/mL
- MIC [18]: 0.031 µg/mL
- MIC [19]: 0.031 µg/mL
- MIC [6]: 0.13 µg/mL
- MIC (Micrococcus luteus 9431): 0.13 µg/mL
- MIC (Proteus vulgaris 6059): 0.25 µg/mL
- MIC [7]: 0.5 µg/mL
- MIC [8]: 0.25 µg/mL
- MIC [9]: 0.031 µg/mL
- MIC (Seratia marsecence 1826E): 0.13 µg/mL
- MIC [10]: 4 µg/mL
- MIC [11]: 0.016 µg/mL
- MIC (Staphylococcus aureus 77): 0.031 µg/mL
- MIC [12]: 4 µg/mL
- MIC [13]: 0.016 µg/mL
- MIC [14]: 0.13 µg/mL
- MIC [15]: 0.016 µg/mL

SMILES: CON=C1CN(c2nc3c(cc2F)c(=O)c(C(=O)O)cn3C2CC2)CC1CN.CON=C1CN(c2nc3c(cc2F)c(=O)c(C(=O)O)cn3C2CC2)CC1CN.CS(=O)(=O)O.CS(=O)(=O)O.O.O.O (centres unmarked) [n = 1.5 hydrate, 7-(3-aminomethyl-4-methoxyiminopyrrolidin-1-yl)-1-cyclopropyl-6-fluoro-4-oxo-1,4-dihydro-1,8-naphthyridine-3-carboxylic acid methanesulfonate n=1.5 hydrate]
- Chemical stability compared with the anhydrate ([1]; 4 weeks): same degree of chemical stability as the anhydrate
- Thermal stability with elapsed time ([1]; 1 week): 97.3%
- Thermal stability with elapsed time ([1]; 2 weeks): 95.8%
- Thermal stability with elapsed time ([1]; 3 weeks): 97.2%
- Thermal stability with elapsed time ([1]; 4 weeks): 96.2%
- Thermal stability with elapsed time ([1]; Initial): 100%
- Relative humidity range with constant moisture content [20]: 23 to 64%
- Water taken up ([20]; above 75% relative humidity): over 10%
- Equilibrium moisture content ([20]; relative humidity 23 to 64%): around 5%
- Moisture Content ([21]; listed as 1.5, hydrate): 4~6 % w/w

SMILES: CON=C1CN(c2nc3c(cc2F)c(=O)c(C(=O)O)cn3C2CC2)CC1CN.CON=C1CN(c2nc3c(cc2F)c(=O)c(C(=O)O)cn3C2CC2)CC1CN.CS(=O)(=O)O.CS(=O)(=O)O.O.O.O.O.O (centres unmarked) [n = 2.5 hydrate]
- Moisture Content [21]: 8~9 % w/w

SMILES: CON=C1CN(c2nc3c(cc2F)c(=O)c(C(=O)O)cn3C2CC2)CC1CN.CS(=O)(=O)O.O.O.O (centres unmarked) [n = 3 hydrate, 7-(3-aminomethyl-4-methoxyiminopyrrolidin-1-yl)-1-cyclopropyl-6-fluoro-4-oxo-1,4-dihydro-1,8-naphthyridine-3-carboxylic acid methanesulfonate n=3 hydrate]
- Chemical stability compared with the anhydrate ([1]; 4 weeks): same degree of chemical stability as the anhydrate
- Thermal stability with elapsed time ([1]; 1 week): 102.4%
- Thermal stability with elapsed time ([1]; 2 weeks): 100.7%
- Thermal stability with elapsed time ([1]; 3 weeks): 99.2%
- Thermal stability with elapsed time ([1]; 4 weeks): 99.2%
- Thermal stability with elapsed time ([1]; Initial): 100%
- Relative humidity range with constant moisture content [20]: 23 to 75%
- Equilibrium moisture content ([20]; relative humidity 23 to 75%, about 2 weeks): around 10%

SMILES: CON=C1CN(c2nc3c(cc2F)c(=O)c(C(=O)O)cn3C2CC2)CC1CN.CON=C1CN(c2nc3c(cc2F)c(=O)c(C(=O)O)cn3C2CC2)CC1CN.CS(=O)(=O)O.CS(=O)(=O)O.O.O.O.O.O.O.O (centres unmarked) [n = 3.5 hydrate]
- Moisture Content [21]: 11~12 % w/w

SMILES: CON=C1CN(c2nc3c(cc2F)c(=O)c(C(=O)O)cn3C2CC2)CC1CN.CS(=O)(=O)O.O.O.O.O (centres unmarked) [n = 4 hydrate]
- Moisture Content [21]: 12~13 % w/w

— patent US7700617B2, “Salt of naphthyridine carboxylic acid derivative” (LG Life Sciences, Ltd., priority 1997, dated 2010)
